According to US8227511B2, “Substituted chromanol derivatives and their use” (Bayer Intellectual Property GmbH, priority 2006, dated 2012):

Tests used:
[1] = system: transgenic hCETP mice; assay: Measurement of the in vivo activity in transgenic hCETP mice; conditions: perorally once a day on 3 days, percentage change compared with the starting value
Description: To determine the oral action on lipoproteins and triglycerides, test substance is administered perorally to transgenic mice [Dinchuk et al., BBA, 1295-1301 (1995)] using a stomach tube once a day on 3 days. For this purpose, the substances are dissolved in 10% Solutol HS 15/10% ethanol/80% of a 0.9% strength sodium chloride solution; the administration volume is generally 10 ml per kg of body weight. Before the start of the experiment, blood is withdrawn from the mice retro-orbitally in order to determine cholesterol and triglycerides in the serum. The serum is obtained as described above for hamsters by incubation at room temperature for 30 min and subsequent centrifugation at 6000 g. On the day after the last administration of substance, blood is again withdrawn from the mice in order to determine lipoproteins and triglycerides. The changes in the parameters measured are expressed as the percentage change compared with the starting value.

[2] = target: T1, CETP (Homo sapiens, UniProt P11597); assay: CETP-SPA test; assay type: biochemical; conditions: transfer of 3H-cholesterol ester from human HDL to biotinylated LDL; 37° C. for 18 h
T1 construct: CETP is obtained in partially purified form from human plasma by differential centrifugation and column chromatography and used for the test; from tissue; host or cells: human plasma
T1 sequence (P11597 18-493): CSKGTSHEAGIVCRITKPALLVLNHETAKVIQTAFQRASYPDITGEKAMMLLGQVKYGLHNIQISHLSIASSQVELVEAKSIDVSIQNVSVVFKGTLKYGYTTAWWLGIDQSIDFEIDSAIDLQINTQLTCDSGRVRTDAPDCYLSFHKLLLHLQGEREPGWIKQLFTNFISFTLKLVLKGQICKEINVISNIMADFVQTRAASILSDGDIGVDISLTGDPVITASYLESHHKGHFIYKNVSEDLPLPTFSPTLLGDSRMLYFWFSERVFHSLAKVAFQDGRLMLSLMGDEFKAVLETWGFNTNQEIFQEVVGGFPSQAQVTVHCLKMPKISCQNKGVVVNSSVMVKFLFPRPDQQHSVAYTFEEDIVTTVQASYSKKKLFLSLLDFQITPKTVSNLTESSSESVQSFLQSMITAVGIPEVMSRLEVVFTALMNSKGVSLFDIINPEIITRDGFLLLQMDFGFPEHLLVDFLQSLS
Description: (§1) CETP is obtained in partially purified form from human plasma by differential centrifugation and column chromatography and used for the test. To this end, human plasma is adjusted to a density of 1.21 g per ml using NaBr and centrifuged at 4° C. at 50 000 rpm for 18 h. The bottom fraction (d>1.21 g/ml) is applied to a Phenyl-Sepharose 26/10 HP fast flow-column (Pharmacia), washed with PBS buffer and then eluted with distilled water. 10 parts of PBS buffer and 1% (w/v) BSA are added to the eluate. The CETP-active fractions are pooled.
For testing of the CETP activity, the transfer of ^3H-cholesterol ester from human HD lipoproteins to biotinylated LD lipoproteins is measured. The reaction is ended by addition of streptavidin-SPA® beads (Amersham) and the transferred radioactivity is determined directly in a liquid scintillation counter.
In the test batch, 10 μl of HDL-3H-cholesterol ester (about 50 000 cpm) are incubated at 37° C. for 18 h with 10 μl of biotin-LDL (Amersham) in 50 mM Hepes/0.15 M NaCl/0.1% bovine serum albumin (RSA)/0.05% NaN3 pH 7.4 containing 10 μl of CETP (1 mg/ml) and 3 μl of a solution of the substance to be tested (dissolved in 10% DMSO/1% RSA). 200 μl of the SPA-streptavidin bead solution (TRKQ 7005) are then added, incubated further with shaking for 1 h and then measured in a scintillation counter. Corresponding incubations with 10 μl of buffer, 10 μl of CETP at 4° C. and 10 μl of CETP at 37° C. serve as controls.
The activity transferred in the control batches with CETP at 37° C. is rated as 100% transfer. The substance concentration at which this transfer is reduced to half is specified as the IC50 value.

[3] = target: T1, CETP; assay: CETP fluorescence test with enriched CETP; assay type: biochemical; conditions: enriched CETP fraction from human plasma; transfer of fluorescent cholesterol ester between liposomes; 37° C. for 4 h
Description: as §1
Measurement of the CETP-catalyzed transfer of a fluorescent cholesterol ester between liposomes [modified according to the procedure of Bisgaier et al., J. Lipid Res. 34, 1625 (1993)]:
For the production of the donor liposomes, 1 mg of cholesteryl 4,4-difluoro-5,7-dimethyl-4-bora-3a,4a-diaza-s-indacene-3-dodecanoate (cholesteryl BODIPY® FL C12, Molecular Probes) is dissolved in 2 ml of chloroform with 5.35 mg of triolein and 6.67 mg of phosphatidylcholine. The solvent is removed at medium temperature in a SpeedVac and the residue is dried under high vacuum for 1 h. The residue is then dissolved in 600 μl of dioxane with gentle warming in an ultrasonic bath and this solution is added very slowly with ultrasonication to 63 ml of 50 mM Tris/HCl, 150 mM NaCl, 2 mM EDTA buffer pH 7.3 at room temperature. The suspension is then ultrasonicated under an N2 atmosphere for 30 minutes in the Branson ultrasonic bath at about 50 watts, the temperature being kept at about 20° C.
The acceptor liposomes are obtained analogously from 86 mg of cholesteryl oleate, 20 mg of triolein and 100 mg of phosphatidylcholine dissolved in 1.2 ml of dioxane and 114 ml of the above buffer by ultrasonication at 50 watts (20° C.) for 30 minutes.
For testing, a test mix consisting of 1 part of above buffer, 1 part of donor liposomes and 2 parts of acceptor liposomes is used.
50 μl of test mix are treated with 48 μl of enriched CETP fraction (1-3 μg), obtained from human plasma by means of hydrophobic chromatography, and 2 μl of a solution of the substance to be investigated in DMSO and incubated at 37° C. for 4 h.
The change in the fluorescence at 485/535 nm is a measure of the CE transfer; the inhibition of the transfer in comparison to the control batch without substance is determined.

IC50 [2] [nM]	IC50 [3] [nM]	SMILES	% increase of HDL after 3 d (dose: 3 × 3 mg/kg) [1] [%]
6	28	CC(C)c1cc2c(c(-c3ccc(F)cc3)c1Cc1ccc(C(C)(C)C)cc1)[C@@H](O)CC1(CCC1)O2 [Example 36, (4S)-6-(4-tert-Butylbenzyl)-5-(4-fluorophenyl)-7-isopropyl-3,4-dihydrospiro[chromen-2,1′-cyclo-butan]-4-ol]	40
21	26	CC(C)c1cc2c(c(C3CCCC3)c1[C@@H](F)c1ccc(C(F)(F)F)cc1)[C@@H](O)CC1(CCC1)O2 [Example 42, (4S)-5-Cyclopentyl-6-{(S)-fluoro[4-(trifluoromethyl)phenyl]methyl}-7-isopropyl-3,4-dihydrospiro-[chroman-2,1′-cyclobutan]-4-ol]	81
